Experimental data: US20220380341A1, “INHIBITORS OF HIV-1 NEF FOR THE TREATMENT OF HIV DISEASE” (priority 2018, published 2022)
Like-named read-outs stand apart in the source and are kept apart here.

Columns and labels:
[1] = biological target: HIV-1 NefNL4-3 (Human immunodeficiency virus type 1 group M subtype B, UniProt P03406, A33V/T15A/T51N/V11I); assay: Surface plasmon resonance binding to recombinant full-length Nef (NL4-3); conditions: for RU30/RUNef (extent of binding): response units at 30 μM relative to Nef immobilized on the SPR chip
[2] = test system: HIV-1NL4-3; assay: HIV-1 infectivity assay in TZM-bl reporter cell line (LTR-luciferase, 48 h); format: cell-based; conditions: for inhibition at 1 µM: Human immunodeficiency virus 1, TZM-bl
Summary of the method: (§1)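 Luciferase read-out 48 h post-infection; compound at 1 μM during HIV-1NL4-3 infection of TZM-bl cells. Percent inhibition scaled to DMSO wild-type virus (0%) and DMSO Nef-defective virus (100% of Nef-dependent effect). Viability checked separately in uninfected cells by Cell Titer Blue.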

[3] = test system: TZM-bl cell line; format: cell-based; conditions: 1 μM
Summary of the method: as §1

[4] = KD, M, Table 4, SPR fit 2-step induced fit, KD = koff/kon × koff2/(koff2 + kon2)
[5] = Table 4, 2-step induced fit, T = 1/koff2
[6] = 1.0 μM, TZM-bl reporter cell line, Table 4, read-out: % Infectivity Inhibition
[7] = Table 1, 1:1 Langmuir fit where the KD2 cell says '1 to 1 fitting', else 2-site fit
[8] = 48 h, Table 1, TZM-bl cells, 1 μM, 48 h, 100% = Nef-defective HIV-1, read-out: HIV-1 Infectivity % Inhibition Norm. to Δ-Nef @ 1 μM
[9] = Nef NL4-3 Binding, SPR 2-state fitting KD, Table 1, 2-step induced-fit model
[10] = read-out: Nef NL4-3 Binding, SPR 1:1 or 2-site fitting KD2, Table 1, 2-site fit, second component

SMILES | Kd [1, 4] [nM] | T, minutes (residence time) [1, 5] | RU30/RUNef (extent of binding) [1] | inhibition at 1 µM [2, 6] [%] | % Cell Viability ([3]; human) [%] | Nef NL4-3 Binding, SPR 1:1 or 2-site fitting KD1 [1, 7] | inhibition at 1 µM [2, 8] [%] | Percent Viability @ 1 μM (TZM-bl cells) ([3]; human) [%] | Kd [1] [nM] | Kd [1, 9] [nM] | Kd ([1]; KD, M, Table 4, SPR fit 1:1 Langmuir, KD = koff/kon) [nM] | T, minutes (residence time) ([1]; Table 4, 1:1 Langmuir fit, T = 1/koff) [E + 00 minutes] | Kd ([1]; Nef NL4-3 Binding, SPR 1:1 or 2-site fitting KD2, Table 1, 2-site fit, second component) [nM] | Kd ([1]; Table 1, 1:1 Langmuir fit where the KD2 cell says '1 to 1 fitting', else 2-site fit, read-out: Nef NL4-3 Binding, SPR 1:1 or 2-site fitting KD1) [nM] | HIV-1 Infectivity % Inhibition Norm. to Δ-Nef @ 1 μM ([2]; Table 1, TZM-bl cells, 1 μM, 48 h, 100% = Nef-defective HIV-1) [%] | Percent Viability @ 1 μM (TZM-bl cells) ([3]; Table 1, uninfected TZM-bl cells, Cell Titer Blue) [%] | Kd [1, 10] [nM]
Oc1c(CC2CCOCC2)c(-c2ccc(F)c(F)c2)nn1-c1nc2ccccc2[nH]1 [Compound I-185, 1-(1H-1,3-benzodiazol-2-yl)-3-(3,4-difluorophenyl)-4-[(oxan-4-yl)methyl]-1H-pyrazol-5-ol] | 3400 | 1.04E + 01 minutes | 4.57E- 03 | 100 | 95.1 |  |  |  |  |  |  |  |  |  |  |  | 
Oc1c(CC2CCOCC2)c(-c2ccccc2F)nn1-c1nc2ccccc2[nH]1 [Compound I-186, 1-(1H-1,3-benzodiazol-2-yl)-3-(2-fluorophenyl)-4-[(oxan-4-yl)methyl]-1H-pyrazol-5-ol] | 11700 | 7.72E + 00 minutes | 1.62E- 02 | 61.5 | 99.3 |  |  |  |  |  |  |  |  |  |  |  | 
Oc1c(CC2CCOCC2)c(-c2ccc(F)cc2F)nn1-c1nc2ccccc2[nH]1 [Compound I-187, 1-(1H-1,3-benzodiazol-2-yl)-3-(2,4-difluorophenyl)-4-[(oxan-4-yl)methyl]-1H-pyrazol-5-ol] | 0.0307 | 1.02E + 06 minutes | 8.62E- 03 | 20.2 | 100 |  |  |  |  |  |  |  |  |  |  |  | 
CC(C)(C)OC(=O)N1CCC(Cc2nn(-c3nc4ccccc4[nH]3)c(O)c2CCc2ccc(F)cc2)C1 (centres unmarked) [Compound I-206, tert-butyl 3-{[1-(1H-1,3-benzodiazol-2-yl)-4-[2-(4-fluorophenyl)ethyl]-5-hydroxy-1H-pyrazol-3-yl]methyl}pyrrolidine-1-carboxylate] |  |  |  |  |  | No Interaction | 35.2 | 90.6 |  |  |  |  |  |  |  |  | 
CC(C)(C)OC(=O)c1ccc(-c2nn(-c3nc4ccccc4[nH]3)c(O)c2CCc2ccc(F)cc2)cc1 [Compound I-208, tert-butyl 4-[1-(1H-1,3-benzodiazol-2-yl)-4-[2-(4-fluorophenyl)ethyl]-5-hydroxy-1H-pyrazol-3-yl]benzoate] | 67800 | 3.95E- 02 minutes | 1.63E- 02 | 39.2 | 90.6 |  | 39.2 | 90.6 | 13800 | 67800 |  |  |  |  |  |  | 
CC(C)(C)OC(=O)N1C[C@@H]2[C@H](C1)[C@H]2c1nn(-c2nc3ccccc3[nH]2)c(O)c1CCc1ccc(F)cc1 [Compound I-209, tert-butyl 6-[1-(1H-1,3-benzodiazol-2-yl)-4-[2-(4-fluorophenyl)ethyl]-5-hydroxy-1H-pyrazol-3-yl]-3-azabicyclo[3.1.0]hexane-3-carboxylate] | 4830 | 3.81E- 01 minutes | 8.59E- 03 | 4.2 | 100 |  | 4.2 | 100.1 | 776 | 5830 |  |  |  |  |  |  | 
CC(C)(C)OC(=O)N1CCN(Cc2nn(-c3nc4ccccc4[nH]3)c(O)c2CCc2ccc(F)cc2)CC1 [Compound I-211, tert-butyl 4-{[1-(1H-1,3-benzodiazol-2-yl)-4-[2-(4-fluorophenyl)ethyl]-5-hydroxy-1H-pyrazol-3-yl]methyl}piperazine-1-carboxylate] |  |  | 2.89E- 03 | 0 | 100 |  | -19.4 | 103.5 | 7220 |  | 7220 | 1.65 |  |  |  |  | 
CC(C)(C)OC(=O)NCc1nn(-c2nc3ccccc3[nH]2)c(O)c1CCc1ccc(F)cc1 [Compound I-212, tert-butyl N-{[1-(1H-1,3-benzodiazol-2-yl)-4-[2-(4-fluorophenyl)ethyl]-5-hydroxy-1H-pyrazol-3-yl]methyl}carbamate] |  |  |  |  |  |  | 50.9 | 92.9 | 538 | 2320 |  |  | 1480 |  |  |  | 
CC(C)(C)OC(=O)NC1(c2nn(-c3nc4ccccc4[nH]3)c(O)c2CCc2ccc(F)cc2)CCOCC1 [Compound I-213, tert-butyl N-{4-[1-(1H-l,3-benzodiazol-2-yl)-4-[2-(4-fluorophenyl)ethyl]-5-hydroxy-1H-pyrazol-3-yl]oxan-4-yl}carbamate] |  |  |  |  |  |  |  |  |  |  |  |  |  | 1600 | −4.6 | 97.6 | 
CC(C)(C)OC(=O)N1CCCC(Cc2nn(-c3nc4ccccc4[nH]3)c(O)c2CCc2ccc(F)cc2)C1 (centres unmarked) [Compound I-214, tert-butyl 3-{[1-(1H-1,3-benzodiazol-2-yl)-4-[2-(4-fluorophenyl)ethyl]-5-hydroxy-1H-pyrazol-3-yl]methyl}piperidine-1-carboxylate] |  |  |  |  |  |  | -5.5 | 99.9 | 20.8 |  |  |  |  |  |  |  | 
CC(C)(C)OC(=O)N1CCC(c2nn(-c3nc4cccc(Cl)c4[nH]3)c(O)c2CCc2ccc(F)cc2)CC1 [Compound I-217, tert-butyl 4-[1-(7-chloro-1H-1,3-benzodiazol-2-yl)-4-[2-(4-fluorophenyl)ethyl]-5-hydroxy-1H-pyrazol-3-yl]piperidine-1-carboxylate] |  |  |  |  |  | No Interaction | 0.1 | 104.9 |  |  |  |  |  |  |  |  | 
CC(C)(C)OC(=O)N1CCC(CCc2c(C3CC3)nn(-c3nc4cc(Cl)ccc4[nH]3)c2O)CC1 [Compound I-218, tert-butyl 4-{2-[1-(5-chloro-1H-1,3-benzodiazol-2-yl)-3-cyclopropyl-5-hydroxy-1H-pyrazol-4-yl]ethyl}piperidine-1-carboxylate] | 692 | 1.02E + 01 minutes | 1.32E- 02 | 0 | 97.9 |  | -7 | 97.9 | 1120 | 692 |  |  |  |  |  |  | 
CC(C)(C)OC(=O)N1CCC(c2nn(-c3nc4cc(F)c(F)cc4[nH]3)c(O)c2CCc2ccc(F)cc2)CC1 [Compound I-219, tert-butyl 4-[1-(5,6-difluoro-1H-1,3-benzodiazol-2-yl)-4-[2-(4-fluorophenyl)ethyl]-5-hydroxy-1H-pyrazol-3-yl]piperidine-1-carboxylate] | 49.3 | 4.93E + 02 minutes | 4.76E- 03 | 100 | 79.2 |  | 109 | 79.2 |  | 49.3 |  |  |  |  |  |  | 3290
CC(C)(C)OC(=O)N1CCC(c2nn(-c3nc4cccnc4[nH]3)c(O)c2CCc2ccc(F)cc2)CC1 [Compound I-220, tert-butyl 4-{4-[2-(4-fluorophenyl)ethyl]-5-hydroxy-1-{3H-imidazo[4,5-b]pyridin-2-yl}-1H-pyrazol-3-yl}piperidine-1-carboxylate] | 3950 | 6.92E + 00 minutes | 7.24E- 03 | 9.8 | 100 |  | 9.8 | 103.6 | 283 | 3950 |  |  |  |  |  |  | 3820
